Patent US20120329158A1, “Methods of Plant Regeneration and Apparatus Therefor” (priority 2010, published 2012)

System: sugarcane artificial seeds (Q208 and KQ228)
Experiment: Germination and conversion of sugarcane artificial seeds into plantlets in liquid MS medium with or without auxins
Conditions: MS medium supplemented with small amounts of auxin; varieties Q208 and KQ228 (FIG. 34)
Method: Thirty-six artificial plant seeds (approx 15 mL) were placed into a sterile 250 mL Erlenmeyer flask with 85 mL of sterile MS liquid with 30 gL^−1 sucrose. Flasks were placed on the gyratory shaker trays at 120 rpm, 27° C.±1° C., and a 16 h photoperiod provided by cool white fluorescent tubes for 2-3 weeks. The media was decanted off and replaced every 3-4 days.
In this medium the artificial plant seeds germinated and produced normal plantlets within 3 weeks (FIG. 5). The seeds change from a transparent gel bead to a brown-black colour within the first few days of being placed into liquid culture. Within 7-10 days there is shoot production from the seeds and within two weeks the shoots are elongating and root production outside of the artificial plant seed begins. Within 3 weeks the plantlet has fully developed, with both extensive shoot and root production, outside of the gel. Variations in the rate of plantlet emergence are to be expected with different genotypes (FIG. 6 and FIG. 7). Typical growth conditions for liquid culture are 120 rpm and 27° C. with a 16 hour photoperiod.
In general, plantlets produced with growth regulators were stunted if hormone levels were 1 μM compared to those obtained from growth regulator-tee MS medium. As such, MS is typically used for the liquid culture medium. Regeneration of artificial plant seeds into plantlets at a rate of 70-90% is achievable. […]

Row | SMILES | conversion of artificial seeds to plantlets
1 | O=C(O)CCCc1c[nH]c2ccccc12 [indole-3 butyric acid (IBA), indole-3-butyric acid] | improved conversion of seeds to plantlets
2 | O=C(O)Cc1cccc2ccccc12 [α-naphthaleneacetic acid (NAA), α-naphthaleneacetic acid] | improved conversion of seeds to plantlets
